Results taken from patent US9216968B2, “Heterocyclic derivative and pharmaceutical drug” (NIPPON SHINYAKU CO., LTD., priority 2011, dated 2015).
Structures can show the parent of a compound that is named as a salt.

What was measured:
human mPGES-1 = human mPGES-1 (Homo sapiens (Human), UniProt O14684); assay: mPGES-1 inhibiting activity (microsome fractions, PGE2 by HTRF); assay type: biochemical; settings: microsomes from CHO-K1 cells transfected with human mPGES-1; PGH2 1 μM, 4° C., 60 seconds; read-out: mPGES-1 Inhibition IC50
Description: mPGES-1 microsome fractions were prepared from CHO-K1 cells transiently transfected with plasmid encoding the human mPGES-1cDNA. Microsomes were diluted with potassium phosphate buffer containing reduced glutathione (pH7.4), and DMSO containing test compound or DMSO alone was added (such that DMSO final concentration would be 1% in each) and incubated at 4° C. for 20 minutes. Then, the enzymatic reactions were initiated by the addition of PGH2 substrate (final concentration 1 μM) and incubated at 4° C. for 60 seconds. The reaction was terminated by the addition of a citrate solution (final citrate concentration 50 mM) containing ferric chloride (final concentration 1 mg/mL). PGE2 production in the enzyme reaction aliquot was measured using HTRF kit (Cisbio International, catalogue #62P2APEC). The solution free of test compound was used as positive control, and the solution free of test compound and microsome sample was used as negative control. 100% activity was defined as PGE2 production in the positive control minus PGE2 production in negative control. IC50 value was calculated by standard method.

A549 cells = assay: Inhibition of PGE2 production in A549 cell (IL-1β stimulated); assay type: cell-based, human; settings: IL-1β 5 ng/well, PGE2 in culture medium
Description: Human A549 cells were seeded onto a 96-well plate at 2×10^4 cells/100 μL per well and allowed to incubate overnight. After removing the culture medium and washing with phosphate buffered saline, the culture medium was replaced by RPMI culture medium with 3% FBS containing a DMSO solution containing test compound or DMSO alone (such that DMSO final concentration would be […] in each). After incubation for 60 minutes, IL-1β (5 ng/well) was added and incubated at 37° C. for 24 hours. Then, PGE2 in the culture medium was measured using HTRF kit (Cisbio International, catalogue #62P2APEC), and PGF2α in the culture medium was measured using EIA kit (Cayman Chemical Company, catalogue #516011). The solution free of test compound was used as positive control, and the solution free of test compound and IL-1β was used as negative control. 100% activity was defined as PGE2 and PGF2α production in the positive control minus PGE2 and PGF2α production in the negative control. IC50 value was calculated by standard method.

Sequence of human mPGES-1 (O14684 whole entry): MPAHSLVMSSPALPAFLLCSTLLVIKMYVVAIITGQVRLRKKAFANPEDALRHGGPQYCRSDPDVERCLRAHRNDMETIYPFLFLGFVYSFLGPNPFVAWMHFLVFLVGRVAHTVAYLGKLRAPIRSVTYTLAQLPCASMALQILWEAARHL

| IC50 (human mPGES-1) [nM] | IC50 (A549 cells; 24 hours, hydrochloride) [nM] | IC50 (A549 cells; Homo sapiens, A549, 24 h) [nM] | Structure (SMILES) |
| --- | --- | --- | --- |
| 9.9 | 57.3 | – | Cc1c(Cl)cccc1NC(=O)c1cc(NC(=O)c2ccccc2C(F)(F)F)cc2[nH]c(C3CCCO3)nc12 (stereo in doubt) [Example 66, N-(3-Chloro-2-methylphenyl)-2-[(2S)-tetrahydrofuran-2-yl]-6-({[2-(trifluoromethyl)phenyl]carbonyl}amino)-1H-benzimidazole-4-carboxamide hydrochloride] |
| 11 | 56.4 | – | O=C(Nc1cc(C(=O)NCc2ccccc2C(F)(F)F)c2nc(C3CCCO3)[nH]c2c1)c1ccccc1C(F)(F)F (stereo in doubt) [Example 67, 2-[(2S)-Tetrahydrofuran-2-yl]-N-[2-(trifluoromethyl)benzyl]-6-({[2-(trifluoromethyl)phenyl]carbonyl}amino)-1H-benzimidazole-4-carboxamide hydrochloride] |
| – | – | 88.9 | O=C(Nc1cc(C(=O)NCc2ccccc2C(F)(F)F)c2nc[nH]c2c1)c1ccccc1C(F)(F)F [Example 1, N-[2-(Trifluoromethyl)benzyl]-6-({[2-(trifluoromethyl)phenyl]carbonyl}amino)-1H-benzimidazol-4-carboxamide] |
| 7.6 | – | 240 | O=C(Nc1cc(C(=O)NC2CCCCC2)c2nc[nH]c2c1)c1ccccc1C(F)(F)F [Example 2, N-Cyclohexyl-6-({[2-(trifluoromethyl)phenyl]carbonyl}amino)-1H-benzimidazole-4-carboxamide] |
| 1.5 | – | 24.6 | Cc1c(Cl)cccc1NC(=O)c1cc(NC(=O)c2ccccc2C(F)(F)F)cc2[nH]cnc12 [Example 3, N-(3-Chloro-2-methylphenyl)-6-({[2-(trifluoromethyl)phenyl]carbonyl}mino)-1H-benzimidazole-4-carboxamide] |
| 105 | – | 342 | O=C(Nc1cc2c(c(C(=O)NC3CCCCC3)c1)OCC2)c1ccccc1C(F)(F)F [Example 7, N-Cyclohexyl-5-({[2-(trifluoromethyl)phenyl]carbonyl}amino)-2,3-dihydro-1-benzofuran-7-carboxamide] |
| 160 | – | 106 | Cc1c(Cl)cccc1NC(=O)c1cc(NC(=O)c2ccccc2C(F)(F)F)cc2c1OCC2 [Example 8, N-(3-Chloro-2-methylphenyl)-5-({[2-(trifluoromethyl)phenyl]carbonyl}amino)-2,3-dihydro-1-benzofuran-7-carboxamide] |
| 6.6 | – | 12.9 | COCc1nc2c(C(=O)Nc3cccc(Cl)c3C)cc(NC(=O)c3ccccc3C(F)(F)F)cc2[nH]1 [Example 11, N-(3-chloro-2-methylphenyl)-2-(methoxymethyl)-6-({[2-(trifluoromethyl)phenyl]carbonyl}amino)-1H-benzimidazole-4-carboxamide] |
| 7.1 | – | 41 | Cc1nc2c(C(=O)NCc3ccccc3C(F)(F)F)cc(NC(=O)c3ccccc3C(F)(F)F)cc2[nH]1 [Example 12, 2-Methyl-N-[2-(trifluoromethyl)benzyl]-6-({[2-(trifluoromethyl)phenyl]carbonyl}amino)-1H-benzimidazole-4-carboxamide hydrochloride] |
| 35.1 | – | 75.6 | Cc1nc2c(C(=O)NC3CCCCC3)cc(NC(=O)c3ccccc3C(F)(F)F)cc2[nH]1 [Example 13, N-Cyclohexyl-2-methyl-6-({[2-(trifluoromethyl)phenyl]carbonyl}amino)-1H-benzimidazole-4-carboxamide hydrochloride] |
| 3.8 | – | 15.2 | Cc1nc2c(C(=O)Nc3cccc(Cl)c3C)cc(NC(=O)c3ccccc3C(F)(F)F)cc2[nH]1 [Example 14, N-(3-Chloro-2-methylphenyl)-2-methyl-6-({[2-(trifluoromethyl)phenyl]carbonyl}amino)-1H-benzimidazole-4-carboxamide hydrochloride] |
| 37.4 | – | 465 | Cc1nc2c(C(=O)NC3CCCC3)cc(NC(=O)c3ccccc3C(F)(F)F)cc2[nH]1 [Example 15, N-Cyclopentyl-2-methyl-6-({[2-(trifluoromethyl)phenyl]carbonyl}amino)-1H-benzimidazole-4-carboxamide] |
| 63.9 | – | 1300 | Cc1nc2c(C(=O)NC3CCC3)cc(NC(=O)c3ccccc3C(F)(F)F)cc2[nH]1 [Example 16, N-Cyclobutyl-2-methyl-6-({[2-(trifluoromethyl)phenyl]carbonyl}amino)-1H-benzimidazole-4-carboxamide] |
| 9.8 | – | 21.6 | CCc1nc2c(C(=O)Nc3cccc(Cl)c3C)cc(NC(=O)c3ccccc3C(F)(F)F)cc2[nH]1 [Example 17, N-(3-Chloro-2-methylphenyl)-2-ethyl-6-({[2-(trifluoromethyl)phenyl]carbonyl}amino)-1H-benzimidazole-4-carboxamide] |
| 21.6 | – | 110 | CCc1nc2c(C(=O)NC3CCCCC3)cc(NC(=O)c3ccccc3C(F)(F)F)cc2[nH]1 [Example 18, N-Cyclohexyl-2-ethyl-6-({[2-(trifluoromethyl)phenyl]carbonyl}amino)-1H-benzimidazole-4-carboxamide] |
| 9.4 | – | 47.8 | CCc1nc2c(C(=O)NCc3ccccc3C(F)(F)F)cc(NC(=O)c3ccccc3C(F)(F)F)cc2[nH]1 [Example 19, 2-Ethyl-N-[2-(trifluoromethyl)benzyl]-6-({[2-(trifluoromethyl)phenyl]carbonyl}amino)-1H-benzimidazole-4-carboxamide] |
| 5.6 | – | 98 | COCc1nc2c(C(=O)NC3CCCCC3)cc(NC(=O)c3ccccc3C(F)(F)F)cc2[nH]1 [Example 20, N-Cyclohexyl-2-(methoxymethyl)-6-({[2-(trifluoromethyl)phenyl]carbonyl}amino)-1H-benzimidazole-4-carboxamide] |
| 8.3 | – | 69.4 | COCc1nc2c(C(=O)NCc3ccccc3C(F)(F)F)cc(NC(=O)c3ccccc3C(F)(F)F)cc2[nH]1 [Example 21, 2-(Methoxymethyl)-N-[2-(trifluoromethyl)benzyl]-6-({[2-(trifluoromethyl)phenyl]carbonyl}amino)-1H-benzimidazole-4-carboxamide] |
| 4.8 | – | 104 | COCc1nc2c(C(=O)Nc3ccccc3C)cc(NC(=O)c3ccccc3C(F)(F)F)cc2[nH]1 [Example 22, 2-(Methoxymethyl)-N-(2-methylphenyl)-6-({[2-(trifluoromethyl)phenyl]carbonyl}amino)-1H-benzimidazole-4-carboxamide hydrochloride] |
| 7.2 | – | 116 | COCc1nc2c(C(=O)Nc3ccc(C)cc3)cc(NC(=O)c3ccccc3C(F)(F)F)cc2[nH]1 [Example 23, 2-(Methoxymethyl)-N-(4-methylphenyl)-6-({[2-(trifluoromethyl)phenyl]carbonyl}amino)-1H-benzimidazole-4-carboxamide hydrochloride] |
| 10.5 | – | 751 | COCc1nc2c(C(=O)NCc3ccccc3Cl)cc(NC(=O)c3ccccc3C(F)(F)F)cc2[nH]1 [Example 24, N-(2-Chlorobenzyl)-2-(methoxymethyl)-6-({[2-(trifluoromethyl)phenyl]carbonyl}amino)-1H-benzimidazole-4-carboxamide hydrochloride] |
| 89 | – | 850 | COCc1nc2c(C(=O)NCc3ccc(C)cc3)cc(NC(=O)c3ccccc3C(F)(F)F)cc2[nH]1 [Example 25, 2-(Methoxymethyl)-N-(4-methylbenzyl)-6-({[2-(trifluoromethyl)phenyl]carbonyl}amino)-1H-benzimidazole-4-carboxamide hydrochloride] |
| 172 | – | 872 | COCc1nc2c(C(=O)NC3CCC(F)(F)CC3)cc(NC(=O)c3ccccc3C(F)(F)F)cc2[nH]1 [Example 26, N-(4,4-Difluorocyclohexyl)-2-(methoxymethyl)-6-({[2-(trifluoromethyl)phenyl]carbonyl}amino)-1H-benzimidazole-4-carboxamide hydrochloride] |
| 2.4 | – | 16 | COCc1nc2c(C(=O)Nc3ccc(C(C)(C)C)cc3)cc(NC(=O)c3ccccc3C(F)(F)F)cc2[nH]1 [Example 27, N-(4-tert-Butylphenyl)-2-(methoxymethyl)-6-({[2-(trifluoromethyl)phenyl]carbonyl}amino)-1H-benzimidazole-4-carboxamide hydrochloride] |

| Structure (SMILES) | IC50 (human mPGES-1) [nM] | IC50 (A549 cells; 24 hours, hydrochloride) [nM] | IC50 (A549 cells; Homo sapiens, A549, 24 h) [nM] |
| --- | --- | --- | --- |
| COCc1nc2c(C(=O)Nc3cccc(Cl)c3C)cc(NC(=O)c3cc(OCCCC(F)(F)F)ccc3Cl)cc2[nH]1 [Example 249, N-(3-Chloro-2-methylphenyl)-6-({[2-chloro-5-(4,4,4-trifluorobutoxy)phenyl]carbonyl}amino)-2-(methoxymethyl)-1H-benzimidazole-4-carboxamide hydrochloride] | 404 | – | – |
